From PubChem BioAssay (NCI)
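48-hour exposure; five concentrations; linearly interpolated endpoints. Abbreviation: GI50, concentration required for 50% inhibition of growth. Definition used: TGI = concentration required for complete inhibition of growth.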

How the values were obtained:
Experiment in all cases: NCI-60 cell line screen, 48 h
[1] = system: MOLT-4 leukemia
[2] = system: SK-MEL-5 melanoma
[3] = system: 786-0 renal
[4] = system: OVCAR-3 ovarian
[5] = system: OVCAR-5 ovarian
[6] = system: IGROV1 ovarian
[7] = system: SK-MEL-2 melanoma
[8] = system: UO-31 renal
[9] = system: T-47D breast
[10] = system: DU-145 prostate

| SMILES | TGI [1] [µM] | TGI [2] [µM] | TGI [3] [µM] | TGI [4] [µM] | TGI [5] [µM] | TGI [6] [µM] | GI50 [7] [µM] | TGI [7] [µM] | GI50 [1] [µM] | GI50 [2] [µM] | GI50 [3] [µM] | GI50 [5] [µM] | GI50 [8] [µM] | TGI [8] [µM] | GI50 [6] [µM] | GI50 [9] [µM] | TGI [9] [µM] | GI50 [10] [µM] | TGI [10] [µM] | GI50 [4] [µM] |
| --- | --- | --- | --- | --- | --- | --- | --- | --- | --- | --- | --- | --- | --- | --- | --- | --- | --- | --- | --- | --- |
| CC(=O)OCC1OC(OCc2ccccc2)C(Br)C(OC(C)=O)C1OC(C)=O (centres undefined) | > 100 | > 100 | > 100 | > 100 | > 100 | > 100 |  |  |  |  |  |  |  |  |  |  |  |  |  |  |
| CCN(CC)CCN1C(=O)C2C3C(=O)CC(C)(CC3C)C2C1=O (centres undefined) | > 100 | > 100 | > 100 |  | > 100 | > 100 | > 100 | > 100 | > 100 | > 100 | > 100 | > 100 | > 100 | > 100 | > 100 | > 100 | > 100 | > 100 | > 100 |  |
| Clc1ccc(OCc2nnc3n2N=C(c2ccc(Br)cc2)CS3)cc1 | > 100 |  | > 100 |  | > 100 |  |  | 66.9 |  |  |  |  |  | 19.6 |  |  |  |  |  |  |
| C=C1C(=O)O[C@H]2[C@H]1CC/C(Cn1cc(-c3cccc(Cl)c3)nn1)=C\CC[C@@]1(C)O[C@@H]21 | 1.25 | 3.08 | 1.87 | 1.63 | 2.78 | 2.41 | 1.66 | 3.28 | 0.31 | 1.7 | 0.506 | 1.21 | 1.08 | 2.31 | 0.73 |  |  | 1 | 2.16 | 0.475 |
| COc1ccc(S(=O)(=O)N[C@H](C(=O)O)c2ccccc2)cc1 | > 100 | > 100 | > 100 | > 100 | > 100 | > 100 |  | > 100 |  |  |  |  |  | > 100 |  |  |  |  |  |  |
| COc1ccccc1/C=C/C1=C(C)CCC(c2ccccc2OC)C1C (centres undefined) |  | 0.379 | 2.51 |  | > 68.2 | > 63.5 | 0.224 | > 100 |  | 0.122 | 0.196 | 0.403 | 0.371 | > 100 | 0.132 | 4.36 | > 100 | 0.22 | 0.868 |  |
| COC(=O)C1(C)CC2C(C)(CCC3(C)C4=CC=C5C(=CC(=O)C(O)=C5C)C4(C)CCC23C)CC1O (centres undefined) | 0.931 | 3.28 | 0.477 | 2.24 | 3.32 | 1.18 |  | 2.94 |  |  |  |  |  | 3.19 |  |  |  |  | 2.71 |  |
| CC[C@]1(O)CC2CN(CCc3c([nH]c4ccccc34)[C@@](C(=O)OC)(c3cc4c(cc3OC)N(C=O)[C@H]3[C@@](O)(C(=O)OC)[C@H](OC(C)=O)[C@]5(CC)C=CCN6CC[C@]43[C@@H]65)C2)C1 (some centres undefined) |  | 0.059 | > 22.5 |  | > 50 | > 50 | < 0.005 | 4.16 | < 0.005 | < 0.005 | 0.014 | 0.0253 | 0.519 | > 50 | 0.0334 |  |  | < 0.005 |  | < 0.005 |
| COC1[C@H](NC(=O)OC(C)(C)C)C(=O)N1Cc1ccccc1 (some centres undefined) | > 100 | > 100 | > 100 | > 100 | > 100 | > 100 |  | > 100 |  |  |  |  |  | > 100 |  |  |  |  |  |  |
| c1ccc(-c2n(Cc3ccc4ccccc4c3)cc[n+]2Cc2ccc3ccccc3c2)cc1 |  | 1.69 | 3.02 |  | 2.75 | 2.13 |  |  |  | 0.481 | 1.46 | 1.36 | 1.47 | 2.87 | 0.651 |  |  | 1.38 | 2.73 |  |
| O=C(CCl)Nc1cc(Cl)c(Cl)cc1Cl | > 10 | 3.17 | 2.87 | 3.31 | 3.72 | 3.3 |  | 3.44 |  |  |  |  |  |  |  |  | 5.59 |  | 7.06 |  |
| COc1cc(/C=C/c2ccc(Br)cc2)cc(OC)c1OC | 15.6 | 20.4 | 52.9 | 26.4 | > 75.1 | > 100 |  | 64.2 |  |  |  |  |  | 80.1 |  |  |  |  |  |  |
| COc1cc(-c2ccc(NC(=O)SCCC(=O)O)cc2OC)ccc1NC(=O)SCCC(=O)O | > 100 | > 100 | > 100 | > 100 | > 100 |  |  | > 100 |  |  |  |  |  | > 100 |  |  |  |  |  |  |
| O=S(=O)(c1ccccc1)N1CN2CN(C1)CN(S(=O)(=O)c1ccccc1)C2 |  | > 100 | > 100 | > 100 | > 100 | > 100 |  | > 100 |  |  |  |  |  | > 100 |  |  |  |  | > 100 |  |
| Cc1cc(C)c2c(c1)N[S@@](=O)S2 | 65.6 | 80.6 | 28.9 | 39 | 81.9 | > 100 |  | 82.9 |  |  |  |  |  | 39.4 |  |  |  |  |  |  |
| COC1OC(CBr)C(OC(=O)c2ccccc2)C(OS(=O)(=O)c2ccc(C)cc2)C1Br (centres undefined) | > 100 |  | > 100 | > 100 |  |  |  | > 100 |  |  |  |  |  | > 100 |  |  |  |  |  |  |
| O=C1C2c3[nH]c4ccccc4c3C3CCCCCC3C2C(=O)N1c1ccccc1 (centres undefined) | 47.7 | > 100 | > 100 | 35.7 | > 100 | 72 |  | 67.2 |  |  |  |  |  | 99.4 |  |  |  |  |  |  |
| CC(=O)[CH-]C(=O)c1ccccc1.CC(=O)[CH-]C(=O)c1ccccc1.CC(C)CCC[C@H](C)C1CCC2[C@@H]3CC=C4C[C@@H]([O-])CC[C@]4(C)C3CC[C@@]21C.CC(C)CCC[C@H](C)C1CCC2[C@@H]3CC=C4C[C@@H]([O-])CC[C@]4(C)C3CC[C@@]21C.Cl.[Ti+4] (some centres undefined) | > 25 | > 25 | > 25 | > 25 | > 25 | > 25 | > 25 | > 25 | > 25 | > 25 | > 25 | > 25 | > 25 | > 25 | > 25 |  |  |  |  | > 25 |
| COc1cc2c(cc1O)CN1CCC23C=C[C@@H](O)CC13 (some centres undefined) | > 100 | > 100 | > 100 | > 100 | > 100 | > 100 |  | > 100 |  |  |  |  |  | > 100 |  |  |  |  |  |  |
| COC(=O)C1C(=O)O[C@@H](c2ccc(OC)c(OC)c2OC)C1C(=O)OC (mixture of isomers) | > 100 | > 100 | > 100 | > 100 | > 100 | > 100 |  |  |  |  |  |  |  | > 100 |  |  |  |  |  |  |
